# In patent publication US8871681B2, “Herbicidal compositions comprising 4-amino-3-chloro-5-fluoro-6-(4-chloro-2-fluoro-3-methoxyphenyl) pyridine-2-carboxylic acid or a derivative thereof and certain sulfonylureas” (Dow AgroSciences LLC, priority 2012, dated 2014):
# System: SCPMA (Bolboschoenus maritimus or Schoenoplectus maritimus, sea clubrush)
# Assay: In-water applied weed control, transplanted paddy rice, greenhouse (Example II)
# Type: in vivo, Bolboschoenus maritimus (L.) Palla
# In short: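 Transplanted rice and weeds at first to fourth true leaf stage in flooded mud pots (2.5–3 cm water), greenhouse ~29/26 °C day/night. Herbicides alone or mixed, in 1.25% crop oil concentrate (acetone for technical material), injected into the flood; visual 0–100% injury after ~3 weeks, expected mixture effects by Colby.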
structure (smiles),measurement,setting,value
"COC(=O)c1ccccc1CS(=O)(=O)NC(=O)Nc1nc(OC)cc(OC)n1 [Bensulfuron-methyl, methyl 2-[[[[[(4,6-dimethoxy-2-pyrimidinyl)amino]carbonyl]amino]sulfonyl]methyl]benzoate, reference compound]",Visual Weed Control (%) - 21 DAA SCPMA Obs,"Table 32, 17.5 gai/ha alone",45%
same,Visual Weed Control (%) - 21 DAA SCPMA Obs,"Table 32, 35 gai/ha alone",90%
COc1c(Cl)ccc(-c2nc(C(=O)OCc3ccccc3)c(Cl)c(N)c2F)c1F [Compound A Benzyl Ester],Visual Weed Control (%) - 20 DAA SCPMA Obs,"Table 29, 4.38 gae/ha alone",10%
same,Visual Weed Control (%) - 20 DAA SCPMA Obs,"Table 29, 8.75 gae/ha alone",0%
same,Visual Weed Control (%) - 20 DAA SCPMA Obs,"Table 29, 17.5 gae/ha alone",20%
same,Visual Weed Control (%) - 20 DAA SCPMA Obs,"Table 29, 35 gae/ha alone",0%
same,Visual Weed Control (%) - 20 DAA SCPMA Obs,"Table 29, 70 gae/ha alone",0%
same,Visual Weed Control (%) - 21 DAA SCPMA Obs,"Table 32, 48 gae/ha alone",0%
same,Visual Weed Control (%) - 21 DAA SCPMA Obs,"Table 32, 96 gae/ha alone",0%
same,Visual Weed Control (%) - 21 DAA SCPMA Obs,"Table 33, 8 gae/ha alone",0%
same,Visual Weed Control (%) - 21 DAA SCPMA Obs,"Table 33, 16 gae/ha alone",0%
same,Visual Weed Control (%) - 21 DAA SCPMA Obs,"Table 33, 32 gae/ha alone",0%
same,Visual Weed Control (%) - 20 DAA SCPMA Obs,"Table 39, 35 gae/ha alone",0%
same,Visual Weed Control (%) - 20 DAA SCPMA Obs,"Table 39, 70 gae/ha alone",0%
same,Visual Weed Control (%) - 20 DAA SCPMA Obs,"Table 46, 35 gae/ha alone",0%
same,Visual Weed Control (%) - 20 DAA SCPMA Obs,"Table 46, 70 gae/ha alone",0%
same,Visual Weed Control (%) - 21 DAA SCPMA Obs,"Table 48, 8 gae/ha alone",0%
same,Visual Weed Control (%) - 21 DAA SCPMA Obs,"Table 48, 16 gae/ha alone",0%
same,Visual Weed Control (%) - 21 DAA SCPMA Obs,"Table 48, 32 gae/ha alone",0%
"COc1c(Cl)ccc(-c2nc(C(=O)O)c(Cl)c(N)c2F)c1F [Compound A Acid, 4-amino-3-chloro-5-fluoro-6-(4-chloro-2-fluoro-3-methoxy-phenyl)pyridine-2-carboxylic acid]",Visual Weed Control (%) - 20 DAA SCPMA Obs,"Table 28, 8.75 gae/ha alone",40%
same,Visual Weed Control (%) - 20 DAA SCPMA Obs,"Table 28, 17.5 gae/ha alone",20%
same,Visual Weed Control (%) - 20 DAA SCPMA Obs,"Table 28, 35 gae/ha alone",20%
same,Visual Weed Control (%) - 20 DAA SCPMA Obs,"Table 28, second set, 70 gae/ha alone",0%
same,Visual Weed Control (%) - 20 DAA SCPMA Obs,"Table 38, 35 gae/ha alone",0%
same,Visual Weed Control (%) - 20 DAA SCPMA Obs,"Table 38, 70 gae/ha alone",0%
same,Visual Weed Control (%) - 20 DAA SCPMA Obs,"Table 45, 42.4 gae/ha alone",0%
same,Visual Weed Control (%) - 20 DAA SCPMA Obs,"Table 45, 84.8 gae/ha alone",0%
